Test results reported in patent publication US7053178B2, “Synthetic peptides and kits for diagnosis of anti-phospholipid syndrome” (Yeda Research Development Co., LTD, priority 1998, dated 2006).
Where no end group is shown, it is not given here.

How the values were obtained:
anti-β2GPI G-3 mAb [1] = assay: U937 monocyte adhesion to HUVEC exposed to G-3 mAb; assay type: cell-based, human; settings: G-3 mAb preincubated with peptide, 15 μM peptide
Experimental: (§1) FIGS. 3A–3C are graphs showing inhibition of U937 monocyte cell adhesion to HUVEC upon exposure to anti-β2GPI ILA-1, ILA-3 and G-3 mAbs and increasing concentrations of the inhibitory monomer peptides A, B and C, respectively, and of unrelated peptide D as control. The percentage of inhibition of adhesion was calculated as follows: % inhibition of adhesion=CPM in the presence of anti-β2GPI mAb−CPM in the presence of anti-β2GPI mAb and the tested peptide/CPM in the presence of anti-β2GPI mAb×100 (CPM=counts/min). Each point represents mean±SD of three different experiments.
(§2) (g) Adherence of U937 monocyte cells to endothelial cells in the presence of anti-β2GPI mAbs and the inhibitory peptides. This assay was performed as previously described (Carvalho et al., 1996). Briefly, U937 cells (a monocyte/macrophage-like cell line) were pretreated with heat-aggregated gamma-globulin for 30 min at 37° C. […] Radioactivity associated with adherence was quantified by beta-scintillation spectroscopy. The results were expressed as percent of added U937 cells that adhered and are presented as the mean±SD from 3–5 replicate wells.
(§3) The adhesion of monocytes to endothelial cells (EC) is considered a marker of EC activation. The percentage of adhesion is expressed as the portion of added U937 monocyte cells adhering to the HUVEC (thus reflecting the percentage of HUVEC coverage by the monocytes). […]

anti-β2GPI G-3 mAb [2] = assay: Competition ELISA: inhibition of G-3 mAb binding to β2GPI; parameters: species or system human; settings: 10 μM peptide concentration
Experimental: FIGS. 1A–1C are graphs showing inhibition of the anti-β2GPI ILA-1, ILA-3 and G-3 mAbs binding to β2GPI by competition assays using increasing concentrations of the inhibitory monomer peptides A, B and C, respectively, and of unrelated peptide D as control. The percent of inhibition was calculated as follows: % inhibition=O.D control−O.D with inhibitor/O.D control×100. Each point represents mean±SD of three different experiments.
(e) Inhibition of anti-β2GPI mAb binding to β2GPI by the inhibitory peptides. For competition ELISA tests, the anti-β2GPI mAbs (10 μg/ml) were preincubated (overnight at 4° C.) with varying concentrations of the peptides. The competition reaction was then transferred to β2GPI-coated γ-irradiated ELISA plates (Nunc), and the assay continued as described above. The percentage of inhibition was calculated as follows: % inhibition=O.D control −O.D with inhibitor/O.D control×100.
(2a) The specificity of interaction of the mAbs with the corresponding synthetic peptides A, B, C and control peptide D as monomers, was assessed by inhibition experiments as described in Materials and Methods, sections (e) and (f).

anti-β2GPI G-3 mAb [3] = assay: ELISA for adhesion molecule expression on HUVEC exposed to G-3 mAb; assay type: cell-based, human; settings: G-3 mAb preincubated with peptide
Experimental: FIG. 4 is a bar graph showing inhibition of expression of the adhesion molecules E-selectin, intracellular adhesion molecule-1 (ICAM-1) and vascular cell adhesion molecule-1 (VCAM-1) on HUVEC by specific inhibitory monomer peptides A, B, or C. To the HUVEC incubated with β2GPI, were added anti-β2GPI ILA-1, ILA-3 and G-3 mAbs with and without preincubation (2 h) with the peptide monomers A, B and C, respectively, and control peptide D. The expression of adhesion molecules was probed by ELISA employing biotinylated anti-human ICAM-1, VCAM-1, E-selectin and streptavidin-alkaline phosphatase. Each point represents mean±SD of three different experiments.
(h) ELISA for detecting the expression of adhesion molecules following exposure to anti-β2GPI mAbs and the inhibitory peptides. HUVEC cells grown in 96-well plates and preincubated with mAbs, with and without different concentrations of specific and irrelevant peptides (100 ug/ml), were washed, fixed with 0.1% glutaraldehyde, and then treated with PBS containing 0.2% Triton-X100 in order to permeabilize the cell membrane (Adamson et al., 1996). The plates were blocked with 3% BSA and incubated with biotinylated mouse anti-human E-selectin, anti-human intracellular adhesion molecule-1 (ICAM-1) or anti-human vascular cell adhesion molecule-1 (VCAM-1) (PharMingen, Torreyana Road, San Diego, Calif.) 1 μg/ml for 1 hour. The cells were then exposed to streptavidin alkaline phosphatase (Jackson) and appropriate substrate.
The enhancement of monocytes to endothelial cells followed by increase in the amount of adhesion molecules expression, as a result of exposure of endothelial cells to anti-β2GPI mAbs, has been observed previously at the laboratory of one of the present inventors. The effect of each specific peptide monomer A, B, C on the expression of the adhesion molecules E-selectin, ICAM-1 and VCAM-1 on HUVEC caused by the corresponding anti-β2GPI mAb, was examined according to Materials and Methods, section (h). […]

anti-β2GPI ILA-3 mAb = assay: U937 monocyte adhesion to HUVEC exposed to ILA-3 mAb; assay type: cell-based, human; settings: ILA-3 mAb preincubated with peptide, 15 μM peptide
Experimental: as §1, §2, §3

Sequence | inhibition of adhesion of U937 to HUVEC (anti-β2GPI G-3 mAb [1]) | inhibition of G-3 mAb binding to β2GPI (anti-β2GPI G-3 mAb [2]) | E-selectin expression by HUVEC (anti-β2GPI G-3 mAb [3]) | ICAM-1 expression by HUVEC (anti-β2GPI G-3 mAb [3]) | VCAM-1 expression by HUVEC (anti-β2GPI G-3 mAb [3]) | inhibition of adhesion of U937 to HUVEC (anti-β2GPI ILA-3 mAb)
CATLRVYKGG [Peptide C] | 92% | 98% | 0.215±0.047 O.D. | 0.186±0.062 O.D. | 0.174±0.062 O.D. | –
KDKATFGTHDG [Peptide B] | – | – | – | – | – | 95%
